Measurements from publication PMC10413337 (RSC Advances, 2023).

Key:
[1] = test system: hepatic carcinoma HepG-2; assay: MTT cytotoxicity evaluation, HepG-2; format: cell-based; conditions: Homo sapiens, HepG2, read-out: IC50 (μM ± SD) HepG-2
[2] = test system: colon carcinoma Caco2; assay: MTT cytotoxicity evaluation, Caco2; format: cell-based; conditions: Homo sapiens, Caco-2, read-out: IC50 (μM ± SD) Caco2
[3] = test system: normal lung fibroblast WI-38; assay: MTT cytotoxicity evaluation, normal WI-38; format: cell-based; conditions: Homo sapiens, WI-38, read-out: IC50 (μM ± SD) WI-38
[4] = test system: breast MCF-7; assay: MTT cytotoxicity evaluation, MCF-7; conditions: for IC50: Homo sapiens, MCF7, read-out: IC50 (μM ± SD) MCF-7
[5] = test system: HepG-2, Caco2, and MCF-7; assay: MTT cytotoxicity, statements over the three cancer cell lines; format: cell-based, human; conditions: 9c versus 3

Row | Compound | IC50 [1] [µM] | IC50 [2] [µM] | IC50 [3] [µM] | IC50 [4] [µM] | improvement of the cytotoxic effect, times ([4]; thiosemicarbazone 3 versus acetyl derivative 1, MCF-7) [times] | drop in cytotoxicity, times [5] [times]
1 | CC(=O)c1nn(-c2ccc(S(N)(=O)=O)cc2)c(=N)s1 [Compound 1, 5-acetyl-3-N-(4-sulfamoylphenyl)-2-imino-1,3,4-thiadiazoline] | 59.6 ± 3.4 | 11.1 ± 0.6 | 91.5 ± 4.7 | 14.9 ± 0.7 | – | –
2 | CC(=NNC(N)=S)c1nn(-c2ccc(S(N)(=O)=O)cc2)c(=N)s1 [Compound 3, 2-(1-(5-imino-4-(4-sulfamoylphenyl)-4,5-dihydro-1,3,4-thiadiazol-2-yl)ethylidene)hydrazine-1-carbothioamide] | 4.57 ± 0.3 | 14.9 ± 0.7 | 44.4 ± 2.3 | 6.38 ± 0.3 | 2.5 | –
3 | CC(=NNc1nc(-c2ccccc2)cs1)c1nn(-c2ccc(S(N)(=O)=O)cc2)c(=N)s1 [Compound 4, 4-(2-Imino-5-(1-(2-(4-phenylthiazol-2-yl)hydrazineylidene)ethyl)-1,3,4-thiadiazol-3(2H)yl)benzenesulfonamide] | 0.5 ± 0.04 | 3.19 ± 0.2 | 21.4 ± 1.1 | 3.52 ± 0.2 | – | –
4 | CC(=O)c1sc(NN=C(C)c2nn(-c3ccc(S(N)(=O)=O)cc3)c(=N)s2)nc1C [Compound 6, 4-(5-(1-(2-(5-Acetyl-4-methylthiazol-2-yl)hydrazineylidene)ethyl)-2-imino-1,3,4-thiadiazol-3(2H)-yl)benzenesulfonamide] | 32.9 ± 1.9 | 33.8 ± 1.7 | 110 ± 5.7 | 21.2 ± 1.2 | – | –
5 | CCOC(=O)c1sc(NN=C(C)c2nn(-c3ccc(S(N)(=O)=O)cc3)c(=N)s2)nc1C [Compound 7, Ethyl-2-(2-(1-(5-imino-4-(4-sulfamoylphenyl)-4,5-dihydro-1,3,4-thiadiazol-2-yl)ethylidene)hydrazineyl)-4-methylthiazole-5-carboxylate] | 19.6 ± 1.1 | 7.39 ± 0.4 | 42.9 ± 2.2 | 12.6 ± 0.6 | – | –
6 | CC(=NNC1=NC(=O)CS1)c1nn(-c2ccc(S(N)(=O)=O)cc2)c(=N)s1 [Compound 8, 4-(2-Imino-5-(1-(2-(4-oxo-4,5-dihydrothiazol-2-yl)hydrazineylidene)ethyl)-1,3,4-thiadiazol-3(2H)-yl)benzenesulfonamide] | 11.3 ± 0.6 | 5.31 ± 0.3 | 22.9 ± 1.2 | 27.2 ± 1.2 | – | –
7 | CNC(=S)NN=C(C)c1nn(-c2ccc(S(N)(=O)=O)cc2)c(=N)s1 [Compound 9a, 2-(1-(5-Imino-4-(4-sulfamoylphenyl)-4,5-dihydro-1,3,4-thiadiazol-2-yl)ethylidene)-N-methylhydrazine-1-carbothioamide] | 0.53 ± 0.01 | 1.01 ± 0.1 | 18.4 ± 1.7 | 1.12 ± 0.1 | – | –
8 | C=CCNC(=S)NN=C(C)c1nn(-c2ccc(S(N)(=O)=O)cc2)c(=N)s1 [Compound 9b, N-Allyl-2-(1-(5-imino-4-(4-sulfamoylphenyl)-4,5-di-hydro-1,3,4-thiadiazol-2-yl)ethylidene)hydrazine-1-carbothioamide] | 149 ± 8.4 | 74.8 ± 3.7 | 92.9 ± 4.8 | 73 ± 3.3 | – | –
9 | CC(=NNC(=S)Nc1ccccc1)c1nn(-c2ccc(S(N)(=O)=O)cc2)c(=N)s1 [Compound 9c, 2-(1-(5-imino-4-(4-sulfamoylphenyl)-4,5-di-hydro-1,3,4-thiadiazol-2-yl)ethylidene)-N-phenylhydrazine-1-carbothioamide] | 37.1 ± 2.1 | 34.7 ± 1.7 | 28.5 ± 1.5 | 21.1 ± 0.9 | – | 10
10 | CC(=NNC(=S)Nc1ccc(Cl)cc1)c1nn(-c2ccc(S(N)(=O)=O)cc2)c(=N)s1 [Compound 9d, N-(4-Chlorophenyl)-2-(1-(5-imino-4-(4-sulfamoylphenyl)-4,5-dihydro-1,3,4-thiadiazol-2-yl)-ethylidene)hydrazine-1-carbothioamide] | 153 ± 8.6 | 98.7 ± 4.9 | 60.7 ± 3.1 | 42.6 ± 1.8 | – | –
11 | C=CCn1c(-c2ccccc2)csc1=NN=C(C)c1nn(-c2ccc(S(N)(=O)=O)cc2)c(=N)s1 [Compound 12b, 4-(5-(1-((3-Allyl-4-phenylthiazol-2(3H)-ylidene)hydrazono)ethyl)-2-imino-1,3,4-thiadiazol-3(2H)-yl)benzenesulfonamide] | 17.5 ± 1.5 | 25.5 ± 1.3 | 63.5 ± 3.9 | 15.1 ± 0.7 | – | –
12 | CC(=NN=c1scc(-c2ccccc2)n1-c1ccc(Cl)cc1)c1nn(-c2ccc(S(N)(=O)=O)cc2)c(=N)s1 [Compound 12d, 4-(5-(1-((3-(4-Chlorophenyl)-4-phenylthiazol-2(3H)-ylidene)hydrazono)ethyl)-2-imino-1,3,4-thiadiazol-3(2H)-yl)benzenesulfonamide] | 4.26 ± 0.2 | 1.06 ± 0.1 | 46.6 ± 2.4 | 3.79 ± 0.2 | – | –
